Assay results published in PubChem BioAssay (NCI).
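These data come from cells grown in 96-well plates and exposed to compound for 48 hours at five concentrations. At the GI50, growth is halved. TGI denotes the concentration required for complete inhibition of growth.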

Tests used:
Experiment in all cases: NCI-60 cell line screen, 48 h
HCT-116 colon = system: HCT-116 colon
TK-10 renal = system: TK-10 renal
OVCAR-5 ovarian = system: OVCAR-5 ovarian
HL-60(TB) leukemia = system: HL-60(TB) leukemia
U251 CNS = system: U251 CNS
KM12 colon = system: KM12 colon
PC-3 prostate = system: PC-3 prostate
SK-OV-3 ovarian = system: SK-OV-3 ovarian
HOP-92 NSCLC = system: HOP-92 NSCLC
NCI/ADR-RES ovarian = system: NCI/ADR-RES ovarian

Structure (SMILES): C/C(COc1ccc2oc(-c3ccccc3)cc(=O)c2c1)=N\O
- GI50 (HCT-116 colon): 25.3 µM
- TGI (HCT-116 colon): > 100 µM
- GI50 (TK-10 renal): 22.6 µM
- TGI (TK-10 renal): 94.7 µM
- GI50 (OVCAR-5 ovarian): 22 µM
- TGI (OVCAR-5 ovarian): 84.7 µM
- GI50 (HL-60(TB) leukemia): 74.5 µM
- TGI (HL-60(TB) leukemia): > 100 µM
- GI50 (U251 CNS): 14.4 µM
- TGI (U251 CNS): 37.2 µM
- GI50 (KM12 colon): 2.39 µM
- TGI (KM12 colon): 39.7 µM
- GI50 (PC-3 prostate): 26.6 µM
- TGI (PC-3 prostate): 70.5 µM
- GI50 (SK-OV-3 ovarian): > 100 µM
- TGI (SK-OV-3 ovarian): > 100 µM
- GI50 (HOP-92 NSCLC): 37.4 µM
- TGI (HOP-92 NSCLC): > 100 µM
- GI50 (NCI/ADR-RES ovarian): 36 µM
- TGI (NCI/ADR-RES ovarian): > 100 µM

Structure (SMILES): Cn1cnc(SC2=CC(=O)C=C3S[C@H]4C[C@@]23c2c(c(O)c3c5c2=NCCC=5C=N3)N4)c1CC(N)C(=O)O (stereo not given in full)
- GI50 (HCT-116 colon): 2.24 µM
- TGI (HCT-116 colon): 4.88 µM
- GI50 (TK-10 renal): 18 µM
- TGI (TK-10 renal): 36.9 µM
- GI50 (OVCAR-5 ovarian): 19.4 µM
- TGI (OVCAR-5 ovarian): 33.6 µM
- GI50 (HL-60(TB) leukemia): 3.18 µM
- TGI (HL-60(TB) leukemia): 8.27 µM
- GI50 (U251 CNS): 18.1 µM
- TGI (U251 CNS): 32 µM
- GI50 (KM12 colon): 12.7 µM
- TGI (KM12 colon): 25.4 µM
- GI50 (PC-3 prostate): 13.4 µM
- TGI (PC-3 prostate): 51.8 µM
- GI50 (SK-OV-3 ovarian): 18 µM
- TGI (SK-OV-3 ovarian): 36.6 µM
- GI50 (HOP-92 NSCLC): 17.5 µM
- TGI (HOP-92 NSCLC): 31.7 µM
- GI50 (NCI/ADR-RES ovarian): 23.7 µM
- TGI (NCI/ADR-RES ovarian): 56.7 µM

Structure (SMILES): CCCCCCCC(=O)Nc1nc2[nH]c(CN3CCN(Cc4cccc(I)c4)CC3)c(CN3CCN(Cc4cccc(I)c4)CC3)c2c(=O)[nH]1
- GI50 (HCT-116 colon): 0.848 µM
- TGI (HCT-116 colon): 1.59 µM
- GI50 (TK-10 renal): 0.828 µM
- TGI (TK-10 renal): 1.62 µM
- GI50 (OVCAR-5 ovarian): 0.852 µM
- TGI (OVCAR-5 ovarian): 1.57 µM
- GI50 (HL-60(TB) leukemia): 0.924 µM
- TGI (HL-60(TB) leukemia): 2.27 µM
- GI50 (U251 CNS): 0.923 µM
- TGI (U251 CNS): 1.8 µM
- GI50 (KM12 colon): 0.906 µM
- TGI (KM12 colon): 1.75 µM
- GI50 (PC-3 prostate): 0.837 µM
- TGI (PC-3 prostate): 1.63 µM
- GI50 (SK-OV-3 ovarian): 0.916 µM
- TGI (SK-OV-3 ovarian): 1.7 µM
- GI50 (HOP-92 NSCLC): 0.668 µM
- TGI (HOP-92 NSCLC): 1.4 µM
- GI50 (NCI/ADR-RES ovarian): 0.882 µM
- TGI (NCI/ADR-RES ovarian): 1.74 µM

Structure (SMILES): [Mn+3].[O-][Cl+3]([O-])([O-])O.[O-]c1ccccc1C=NCCN1CC1.[O-]c1ccccc1C=NCCN1CC1
- GI50 (HCT-116 colon): 15.1 µM
- TGI (HCT-116 colon): > 100 µM
- GI50 (TK-10 renal): 50.7 µM
- TGI (TK-10 renal): > 100 µM
- GI50 (OVCAR-5 ovarian): 37.6 µM
- TGI (OVCAR-5 ovarian): > 100 µM
- GI50 (HL-60(TB) leukemia): 14.7 µM
- TGI (HL-60(TB) leukemia): 37 µM
- GI50 (U251 CNS): 15.7 µM
- TGI (U251 CNS): 38.6 µM
- GI50 (KM12 colon): 17 µM
- TGI (KM12 colon): 39 µM
- GI50 (PC-3 prostate): 19.9 µM
- TGI (PC-3 prostate): > 100 µM
- GI50 (SK-OV-3 ovarian): 35.2 µM
- TGI (SK-OV-3 ovarian): > 100 µM
- GI50 (HOP-92 NSCLC): 94.8 µM
- TGI (HOP-92 NSCLC): > 100 µM
- GI50 (NCI/ADR-RES ovarian): 19.3 µM
- TGI (NCI/ADR-RES ovarian): 49.8 µM

Structure (SMILES): CC[C@H](C)[C@H](NC(=O)c1ncccn1)C(=O)N(C)[C@H](C[C@@H](OC(C)=O)c1nc(C(=O)N[C@@H](Cc2ccccc2)C[C@H](C)C(=O)OC)cs1)C(C)C
- GI50 (HCT-116 colon): 0.929 µM
- TGI (HCT-116 colon): > 25 µM
- GI50 (TK-10 renal): 16.6 µM
- TGI (TK-10 renal): > 25 µM
- GI50 (OVCAR-5 ovarian): 5.07 µM
- TGI (OVCAR-5 ovarian): > 25 µM
- GI50 (HL-60(TB) leukemia): 0.588 µM
- TGI (HL-60(TB) leukemia): 1.26 µM
- GI50 (U251 CNS): 2.39 µM
- TGI (U251 CNS): > 25 µM
- GI50 (KM12 colon): 1.04 µM
- TGI (KM12 colon): > 25 µM
- GI50 (PC-3 prostate): 1.46 µM
- TGI (PC-3 prostate): > 25 µM
- GI50 (SK-OV-3 ovarian): 5.51 µM
- TGI (SK-OV-3 ovarian): > 25 µM
- GI50 (HOP-92 NSCLC): 4.36 µM
- TGI (HOP-92 NSCLC): > 25 µM
- GI50 (NCI/ADR-RES ovarian): 11.7 µM
- TGI (NCI/ADR-RES ovarian): > 25 µM

Structure (SMILES): COc1ccc(OC)c(-c2cc(-c3ccc(Cl)cc3)nn2-c2ccccc2)c1
- GI50 (TK-10 renal): 26.1 µM
- TGI (TK-10 renal): 88.2 µM
- GI50 (OVCAR-5 ovarian): 88.4 µM
- TGI (OVCAR-5 ovarian): > 100 µM
- GI50 (HL-60(TB) leukemia): 35.9 µM
- TGI (HL-60(TB) leukemia): > 100 µM
- GI50 (KM12 colon): 23.1 µM
- TGI (KM12 colon): > 100 µM
- GI50 (PC-3 prostate): 24.2 µM
- TGI (PC-3 prostate): > 100 µM
- GI50 (HOP-92 NSCLC): 29.3 µM
- TGI (HOP-92 NSCLC): > 100 µM
- GI50 (NCI/ADR-RES ovarian): 15.8 µM
- TGI (NCI/ADR-RES ovarian): 60.9 µM

Structure (SMILES): O=c1cccccc1O
- TGI (HCT-116 colon): > 100 µM
- TGI (TK-10 renal): > 100 µM
- TGI (OVCAR-5 ovarian): > 100 µM
- TGI (HL-60(TB) leukemia): 43.7 µM
- TGI (KM12 colon): > 100 µM
- TGI (PC-3 prostate): > 100 µM
- TGI (SK-OV-3 ovarian): > 100 µM
- TGI (HOP-92 NSCLC): > 100 µM
- TGI (NCI/ADR-RES ovarian): > 100 µM

Structure (SMILES): Cc1cc2[nH]c(=O)c3c4ncccc4cn3c2cc1C
- GI50 (HCT-116 colon): 1.92 µM
- TGI (HCT-116 colon): 4.53 µM
- GI50 (TK-10 renal): 4.36 µM
- TGI (TK-10 renal): 61.8 µM
- GI50 (OVCAR-5 ovarian): > 100 µM
- TGI (OVCAR-5 ovarian): > 100 µM
- GI50 (U251 CNS): 2.67 µM
- TGI (U251 CNS): 9.18 µM
- GI50 (KM12 colon): 3.17 µM
- TGI (KM12 colon): > 100 µM
- GI50 (PC-3 prostate): 5.83 µM
- TGI (PC-3 prostate): > 100 µM
- GI50 (SK-OV-3 ovarian): 6.62 µM
- TGI (SK-OV-3 ovarian): 73.7 µM
- GI50 (HOP-92 NSCLC): 2.94 µM
- TGI (HOP-92 NSCLC): 16.3 µM
- GI50 (NCI/ADR-RES ovarian): 2.93 µM
- TGI (NCI/ADR-RES ovarian): > 100 µM

Structure (SMILES): COc1cc(/C=C2\C[C@H]3[C@@H]4CC=C5C[C@@H](O)CC[C@]5(C)[C@H]4CC[C@]3(C)[C@H]2O)ccc1OCCN1CCCCC1
- GI50 (HCT-116 colon): 0.254 µM
- TGI (HCT-116 colon): 0.494 µM
- GI50 (TK-10 renal): 1.61 µM
- TGI (TK-10 renal): 3.64 µM
- GI50 (OVCAR-5 ovarian): 1.03 µM
- TGI (OVCAR-5 ovarian): 2.6 µM
- GI50 (HL-60(TB) leukemia): 1.33 µM
- TGI (HL-60(TB) leukemia): 3.18 µM
- GI50 (U251 CNS): 1.13 µM
- TGI (U251 CNS): 3.32 µM
- GI50 (KM12 colon): 0.912 µM
- TGI (KM12 colon): 2.12 µM
- GI50 (PC-3 prostate): 1.03 µM
- TGI (PC-3 prostate): 7.01 µM
- GI50 (HOP-92 NSCLC): 0.688 µM
- TGI (HOP-92 NSCLC): 1.47 µM
- GI50 (NCI/ADR-RES ovarian): 1.46 µM
- TGI (NCI/ADR-RES ovarian): 4.66 µM

Structure (SMILES): Cc1cc(C)c([I+]c2c(C)cc(C)cc2C)c(C)c1
- GI50 (HCT-116 colon): 0.348 µM
- TGI (HCT-116 colon): 1.35 µM
- GI50 (TK-10 renal): 0.712 µM
- TGI (TK-10 renal): 2.06 µM
- GI50 (OVCAR-5 ovarian): 0.781 µM
- TGI (OVCAR-5 ovarian): 2.09 µM
- GI50 (U251 CNS): 0.32 µM
- TGI (U251 CNS): 1.38 µM
- GI50 (PC-3 prostate): 0.259 µM
- TGI (PC-3 prostate): 1.14 µM
- GI50 (SK-OV-3 ovarian): 1.14 µM
- TGI (SK-OV-3 ovarian): 2.37 µM
- GI50 (HOP-92 NSCLC): 0.267 µM
- TGI (HOP-92 NSCLC): 1.53 µM
- GI50 (NCI/ADR-RES ovarian): 6.54 µM
- TGI (NCI/ADR-RES ovarian): 26.8 µM
